Measured values as given in patent US6875581B1, “Method for screening of modulators of calcineurin activity” (Genopia Biomedical GmbH, priority 1998, dated 2005).

Experiments:
[1] = system: calcineurin; assay: Phosphotyrosine phosphatase assay with the substrate fluoresceinmonophosphate (FMP); format: biochemical; settings: FMP as substrate, Lineweaver-Burk method
Method: 20. Calcineurin phosphatase assay—100 ng-4 μg recombinant calcineurin (calcineurin-A/B heterodimer), 100 ng-1 μg purified bovine brain calcineurin (Sigma Aldrich, Deisenhofen, Germany) or 100 μg homogenized tissue or cell extracts were used for classical calcineurin phosphatase assays. 100 μg cells or tissue were homogenized exactly as described (Stemmer et al., 1995). Partly purified and redox sensitive calcineurin was prepared by centrifugation at 14,000 rpm at 4° C. for 10 min (Eppendorf centrifuge 5417R) and the resulting supernatant was separated on a 1.5×10 cm Sephadex-G50 gelfiltration column as described (Stemmer et al., 1995), (Gold et al., 1997). […] After starting the enzymatic reaction with para-nitrophenylphosphate or fluoresceinmonophosphate the absorbance at 405 nm (para-nitrophenylphosphate) or fluorescence λ exication=485 nm; λ emission=520 nm) was monitored over 20 min at 30° C. using a UV/VIS/fluorescence microplate photometer (Biolumin 960 kinetic fluorescence/absorbance photometer, Molecular Dynamics). […] The protective effect of CuZnSOD against redox inactivation of calcineurin was determined by addition of 3 μg recombinant human wild-type or mutated CuZnSOD (constant CuZnSOD protein) or addition of 1.67 units of recombinant human wild-type or mutated CuZnSOD (constant CuZnSOD activity). […] The quantity of released phosphate was determined by a scintillation counting. […]

[2] = SOD assay (enzymatic activity of the CuZnSOD proteins); format: biochemical
Method: 8. SOD assay and activity staining—Enzymatic activity of the CuZnSOD proteins were either analyzed by 10% native gel electrophoresis and activity staining with nitrotetrazolium blue dye or by a quantitative spectrophotometrically assay according to published protocols (Beauchamp and Fridovich, 1971; Nebot et al., 1993). Protein yields were determined by the Bradford method (Protein assay kit, BioRAD, Hercules, Calif., USA). The concentration of purified CuZnSOD was determined spectrophotometrically using the extinction coefficient 265=1.84×10^4 M^−1 cm^−1.

[3] = system: calcineurin; assay: Protective effect of CuZnSOD against calcium induced redox inactivation of calcineurin (FK506 inhibitable RII-phosphopeptide activity); format: biochemical; settings: 20 min vs 0 min; for Percentage of FK506 inhibitable RII-phosphopeptide activity after 20 min compared with the activity at 0 min, constant protein (3 μg): 3 μg CuZnSOD; for Percentage of FK506 inhibitable RII-phosphopeptide activity after 20 min compared with the activity at 0 min, constant activity (1.67 U): 1.67 U CuZnSOD
Method: 20. Calcineurin phosphatase assay—100 ng-4 μg recombinant calcineurin (calcineurin-A/B heterodimer), 100 ng-1 μg purified bovine brain calcineurin (Sigma Aldrich, Deisenhofen, Germany) or 100 μg homogenized tissue or cell extracts were used for classical calcineurin phosphatase assays. 100 μg cells or tissue were homogenized exactly as described (Stemmer et al., 1995). Partly purified and redox sensitive calcineurin was prepared by centrifugation at 14,000 rpm at 4° C. for 10 min (Eppendorf centrifuge 5417R) and the resulting supernatant was separated on a 1.5×10 cm Sephadex-G50 gelfiltration column as described (Stemmer et al., 1995), (Gold et al., 1997). Phosphotyrosine phosphatase assay was performed in microplates (100 μl total assay volume) either using 30 μM fluoresceinmonophosphate or 20 mM para-nitrophenylphosphate (Sigma Aldrich, Deisenhofen, Germany); 10 μl recombinant, purified or partly purified and assay buffer (25 mM Tris/HCl, pH 7; 2 mM CaCl2; 0.1 μM calmodulin; 25 μM FK506). After starting the enzymatic reaction with para-nitrophenylphosphate or fluoresceinmonophosphate the absorbance at 405 nm (para-nitrophenylphosphate) or fluorescence λ exication=485 nm; λ emission=520 nm) was monitored over 20 min at 30° C. using a UV/VIS/fluorescence microplate photometer (Biolumin 960 kinetic fluorescence/absorbance photometer, Molecular Dynamics). Phosphoserine phosphatase assay was performed as described (Hubbard and Klee, 1991), (Wang et al., 1996). […] The protective effect of CuZnSOD against redox inactivation of calcineurin was determined by addition of 3 μg recombinant human wild-type or mutated CuZnSOD (constant CuZnSOD protein) or addition of 1.67 units of recombinant human wild-type or mutated CuZnSOD (constant CuZnSOD activity). The reaction mixture was incubated for 2 min at 30° C. and stopped with 100 mM potassium phosphate/5% TCA. The reaction mixture was passed through a 0.5 ml ion-exchange column (Dowex; AG 50W-X8, BioRad) and the unbound phosphate eluted with 0.5 ml water. The quantity of released phosphate was determined by a scintillation counting.
Protective Effect of CuZnSOD of Calcium Induced Inactivation of Calcineurin
Percentage of FK506 inhibitable RII-phosphopeptide activity after 20 min compared with the activity at 0 min

[4] = system: calcineurin-A/B heterodimer; assay: Laser fluctuation correlation spectroscopy, binding of fluorescence labeled CuZnSOD to calcineurin; design: species or system human; settings: labeled CuZnSOD alone 41 kDa; expected 114 kDa
Source text: 21. High Throughput BioAssay using recombinant calcineurin-A, recombinant calcineurin-B, calmodulin and recombinant CuZnSOD (analytical assay to identify activators or inhibitors of CuZnSOD/calcineurin interaction)—Laser fluctuation correlation spectroscopy (FCS) is a useful tool to quantify ligand—ligand interactions. The fluorescence F(t) of a optical well defined volume element which is excitated by a confocal laser is monitored as a function of time. The temporal autocorrelation of the fluorescence fluctuation δ F(t) yields the time scale of this dynamics and the average number of independent fluorophores in the probe volume. If the fluorescene fluctuation arise from diffusive motion and from fluorescence sensitive reaction, fluorescent fluctuation correlation function signal is approximated by the formula: GDR(τ)=GDiff(τ)*[1+A*exp(−kR*τ)] • τ=fluorescence correlation time • kR=apparent binding constant of the fluorescent labeled ligand • A=equilibrium coefficent dependent constant
If one measurement is performed with a solution only containing the fluorescent labeled ligand and a second measurement is performed with a solution containing the fluorescent labeled ligand and an interacting molecule the correlation function GDR can be separately analyzed and yields binding parameters of the interacting molecules. […]

Row | Vmax [1] | Km ([1]; Michaelis-Menten kinetic assumed) | Compound | CuZnSOD activity per mg protein [2] | Percentage of FK506 inhibitable RII-phosphopeptide activity after 20 min compared with the activity at 0 min, constant protein (3 μg) [3] | Percentage of FK506 inhibitable RII-phosphopeptide activity after 20 min compared with the activity at 0 min, constant activity (1.67 U) [3] | hydrodynamic radius / apparent molecular weight after addition of calcineurin-A/B heterodimer [4]
1 | 400 µmol/min | 40 µM | O=C1OC2(c3ccc(O)cc3Oc3cc(OP(=O)(O)O)ccc32)c2ccccc21 (stereo not shown) [FMP, fluoresceinmonophosphate] |  |  |  | 
2 |  |  | erythrocyte wild-type: purified human erythrocyte CuZnSOD (Sigma Aldrich) [reference compound] | (8330 U/mg) | 57 +/− 10% | 57 +/− 10% | 
3 |  |  | labeled CuZnSOD: recombinant CuZnSOD labeled with Oregon-Green-514 dye |  |  |  | 90 kDa
4 |  |  | recomb. mutation A4V: recombinant human CuZnSOD with substitution Ala-4 -> Val-4 | (1820 U/mg) | 22 +/− 27% | 8 +/− 3% | 
5 |  |  | recomb. mutation D90A: recombinant human CuZnSOD with substitution Asp-90 -> Ala-90 | (4590 U/mg) | 42 +/− 17% | 32 +/− 15% | 180.000 kDa
6 |  |  | recomb. mutation G93A: recombinant human CuZnSOD with substitution Gly-93 -> Ala-93 | (2130 U/mg) | 16 +/− 16% | 21 +/− 22% | 
7 |  |  | recombinant wild-type: recombinant human wild-type copper/zinc superoxide dismutase expressed in E. coli | (6380 U/mg) | 70 +/− 33% | 56 +/− 22% | 
